The experiment has as its system Broad 7084-01 inhibitor HTS, set 2. The experiment is described as follows: inhibitors in Broad screen 7084-01, set 2 (AID 977613).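 Also: host cells are infected with parasite promastigotes that become internalized.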

The structures appear in SMILES notation. Activity calls are given as the source filed them. No rule for the calls is given here.

`O=C(C[C@H]1CC[C@@H]2[C@H](COC[C@H](O)CN2Cc2cccc(F)c2)O1)NCc1cccc(F)c1`: the active concentration is > 10 µM (inactive).
As to `O=C(C[C@@H]1CC[C@H]2[C@@H](COC[C@@H](O)CN2C(=O)Nc2ccc(C(F)(F)F)cc2)O1)NCC1CC1`, the active concentration was > 10 µM (inactive).
Regarding `CN(C)C(=O)c1ccc(-c2ccc3c(c2)[C@@H]2[C@@H](CCN2Cc2ccc4c(c2)OCO4)[C@@H](CO)N3)cc1`, the active concentration is > 10 µM (inactive).
Consider `O=C(C[C@@H]1CC[C@@H]2[C@H](COC[C@H](O)CN2CC2CCOCC2)O1)NCC1CCCCC1`, for which the active concentration was > 10 µM (inactive).
Turning to `COc1cccc(C(=O)Nc2ccc3c(c2)C(=O)N(C)[C@@H]2CC[C@H](CC(=O)NCCCN4CCOCC4)O[C@H]2CO3)c1`, the active concentration was > 10 µM (inactive).
Consider `COCC(=O)N1CC2(C1)CN(Cc1nccs1)[C@@H](CO)c1c2c2ccc(OC)cc2n1C`, for which the active concentration was > 10 µM (inactive).
For the compound `CCCC(=O)N1CCC2(CC1)CN(Cc1ccc(Cl)cc1)[C@H](CO)c1[nH]c3cc(OC)ccc3c12`, the active concentration is > 10 µM (inactive).
As to `COc1ccc2c3c(n(C)c2c1)[C@H](CO)N(Cc1cccc(F)c1)CC31CCN(C(=O)Cc2ccccc2)CC1`, the active concentration was > 10 µM (inactive).
To `COCCNC(=O)[C@H]1[C@H](CO)[C@H]2Cn3c(ccc(-c4cccc(F)c4)c3=O)[C@@H]1N2C(=O)NC(C)C` belongs > 10 µM (inactive).
Then `CN(C)C(=O)C[C@@H]1CC[C@H]2[C@H](COc3ccc(NC(=O)c4ccc(F)cc4)cc3C(=O)N2C)O1`, with > 10 µM (inactive); and `C/C=C/c1ccc([C@@H]2[C@H](CO)N3C(=O)CN(Cc4ccc(F)cc4)C[C@@H]23)cc1`, with > 10 µM (inactive).
Consider `CN1CCCCN2[C@H](CO)[C@H](c3ccc(-c4ccc(F)cc4)cc3)[C@@H]2C1`, for which the active concentration was > 10 µM (inactive).
For the compound `O=C(C[C@H]1CC[C@@H]2[C@H](COC[C@H](O)CN2C(=O)Cc2ccccc2)O1)NC1CCCC1`, the active concentration is > 10 µM (inactive).
As for `CC(C)NC(=O)N1CC2(C1)[C@H](c1ccccc1)[C@H](CO)N2Cc1cncnc1`, the active concentration was under 10 µM.
Then `CCC(=O)N1CC(=O)N2[C@H](CO)[C@H](c3ccc(-c4ccc(C#N)cc4)cc3)[C@H]2C1`, with > 10 µM (inactive).
As to `COc1cccc(C(=O)N2C[C@H]3[C@@H](c4ccccc42)[C@H](CO)N3Cc2ccccc2Cl)c1`, the active concentration was under 10 µM.
`O=C(Nc1cccc(Cl)c1)N1C[C@@H]2[C@H](c3ccccc31)[C@H](CO)N2CC1CCOCC1`: the active concentration was > 10 µM (inactive).
To `N#Cc1cccc(-c2ccc3c(c2)[C@H]2[C@H](CCN2S(=O)(=O)c2ccc(F)cc2)[C@@H](CO)N3)c1` belongs > 10 µM (inactive).
In the case of `O=C(c1cccnc1)N1C[C@H]2[C@@H](c3ccccc31)[C@H](CO)N2Cc1ccc2c(c1)OCO2`, the active concentration was > 10 µM (inactive).
As for `COCC(=O)N1[C@H](C#N)[C@H](c2ccccc2-c2ccccc2F)[C@H]1CO`, the active concentration is > 10 µM (inactive).
Take `O=C(C[C@H]1CC[C@@H]2[C@H](COC[C@@H](O)CN2Cc2cc(F)cc(F)c2)O1)NC1CCC1`: the active concentration was > 10 µM (inactive).
For `CCCNC(=O)N1[C@@H]2CN(C(=O)c3cccnc3)c3ccccc3[C@@H]2[C@@H]1CO`, the active concentration was > 10 µM (inactive).
Turning to `CCCNC(=O)N1[C@H](CO)[C@H](c2ccccc2-c2ccc(C)cc2)[C@@H]1C#N`, the active concentration is > 10 µM (inactive).
On to `O=C(c1ccccc1)N1[C@H](CO)[C@H](c2ccccc2)C12CN(Cc1nccs1)C2`, for which the active concentration was > 10 µM (inactive).
With `O=C(C1CCOCC1)N1C[C@H]2[C@@H](c3ccccc31)[C@@H](CO)N2C(=O)Cc1ccccc1`, the active concentration was > 10 µM (inactive).
For the compound `Cc1ccc(-c2ccccc2[C@@H]2[C@H](C#N)N(C(=O)c3cccc(F)c3)[C@H]2CO)cc1`, the active concentration was > 10 µM (inactive).
Consider `COc1ccccc1CN1[C@@H]2c3ccc(C4=CCCC4)c(=O)n3C[C@H]1[C@H](CO)[C@H]2C(=O)N(C)C`, for which the active concentration was > 10 µM (inactive).
Turning to `Cc1cccc(S(=O)(=O)N2CC[C@H]3[C@@H](CO)N(C)c4ccc(-c5ccccc5F)cc4[C@H]32)c1`, the active concentration is > 10 µM (inactive).
Take `O=C(c1ccc2c(c1)OCO2)N1C[C@H]2[C@@H](c3ccccc31)[C@@H](CO)N2C(=O)CC1CC1`: the active concentration was > 10 µM (inactive).
Consider `CN1C(=O)c2cc(NC(=O)Nc3ccccc3Cl)ccc2OC[C@H]2O[C@@H](CC(=O)NCCCN3CCOCC3)CC[C@@H]21`, for which the active concentration is > 10 µM (inactive).
Then `O=C(Nc1ccccc1)N1CC(=O)N2[C@H](CO)[C@@H](c3ccc(C#CC4CCCCC4)cc3)[C@@H]2C1`, with > 10 µM (inactive); and `N#C[C@H]1[C@@H](c2ccccc2C2=CCCC2)[C@H](CO)N1S(=O)(=O)c1ccccc1`, with > 10 µM (inactive).
Regarding `N#C[C@H]1[C@H](c2ccccc2C2=CCCCC2)[C@@H](CO)N1C(=O)C1CCOCC1`, the active concentration is > 10 µM (inactive).
To `COc1ccc2c3c(n(C)c2c1)[C@H](CO)N(C(=O)Nc1ccccc1F)CC31CN(C(=O)c2ccccc2F)C1` belongs > 10 µM (inactive).
Consider `O=C(C[C@@H]1CC[C@H]2[C@@H](COC[C@H](O)CN2Cc2ccc3c(c2)OCO3)O1)Nc1ccccc1`, for which the active concentration is > 10 µM (inactive).
Then `Cc1ccccc1S(=O)(=O)N1CC[C@@H]2[C@@H](CO)N(C)c3ccc(-c4cccc(C#N)c4)cc3[C@@H]21`, with > 10 µM (inactive).
Turning to `OC[C@H]1[C@H]2c3ccccc3NC[C@H]2N1Cc1ccccc1Cl`, the active concentration was > 10 µM (inactive).
Take `N#C[C@@H]1[C@@H](c2ccccc2C2=CCCCC2)[C@@H](CO)N1C(=O)c1cccc(F)c1`: the active concentration is > 10 µM (inactive).
To `O=C(C[C@@H]1CC[C@@H]2[C@H](COC[C@H](O)CN2Cc2cc(F)cc(F)c2)O1)NC1CCC1` belongs > 10 µM (inactive).
With `O=S(=O)(c1cccs1)N1CCCCN2[C@H](C1)[C@H](c1ccc(/C=C/c3ccccc3)cc1)[C@@H]2CO`, the active concentration was > 10 µM (inactive).
As to `C/C=C/c1ccc2c(c1)[C@@H]1[C@@H](CCN1C(=O)Cc1cccnc1)[C@@H](CO)N2C`, the active concentration was > 10 µM (inactive).
Consider `O=C(NCc1ccccn1)[C@@H]1[C@@H](CO)[C@@H]2Cn3c(ccc(C4=CCCC4)c3=O)[C@H]1N2Cc1cccnc1`, for which the active concentration is > 10 µM (inactive).
Regarding `C[C@@H](NC(=O)[C@@H]1[C@@H](CO)[C@@H]2Cn3c(cccc3=O)[C@H]1N2CCC(F)(F)F)c1ccccc1`, the active concentration is > 10 µM (inactive).
Then `O=C(Cc1ccncc1)N1CC(=O)N2[C@H](CO)[C@H](c3ccc(Br)cc3)[C@@H]2C1`, with > 10 µM (inactive); and `O=C(Nc1ccccc1)N1CC(=O)N2[C@@H](CO)[C@@H](c3ccc(C#CC4CCCCC4)cc3)[C@@H]2C1`, with > 10 µM (inactive); and `COc1ccc2c3c(n(C)c2c1)[C@@H](CO)N(C(=O)Nc1cccc(F)c1)CC31CN(Cc2nccs2)C1`, with > 10 µM (inactive).
`Cc1ccccc1-c1ccccc1[C@@H]1[C@@H](C#N)N(C(=O)c2cccc(F)c2)[C@H]1CO`: the active concentration is > 10 µM (inactive).
For `Cc1cc(C(=O)Nc2ccc3c(c2)C(=O)N(C)[C@@H]2CC[C@@H](CC(=O)NCc4ccc(-c5ccccc5)cc4)O[C@H]2CO3)no1`, the active concentration is > 10 µM (inactive).
As to `CN1c2ccc(-c3ccc(C#N)cc3)cc2[C@@H]2[C@@H](CCN2C(=O)Nc2cccc(F)c2)[C@@H]1CO`, the active concentration is > 10 µM (inactive).
In the case of `O=C(C[C@H]1CC[C@H]2[C@@H](COC[C@H](O)CN2C(=O)c2ccncc2)O1)NCc1ccc(-c2ccccc2)cc1`, the active concentration is > 10 µM (inactive).
Turning to `COc1cccc(-c2ccc([C@H]3[C@H]4CNCC(=O)N4[C@H]3CO)cc2)c1`, the active concentration is > 10 µM (inactive).
To `CCC(=O)N1CC2(C1)[C@H](c1ccc(-c3ccc(C)cc3)cc1)[C@@H](CO)N2S(=O)(=O)CC` belongs > 10 µM (inactive); to `OC[C@@H]1[C@@H](c2ccccc2)C2(CN(Cc3nccs3)C2)N1CCC(F)(F)F`, > 10 µM (inactive).
To `COc1cccc(-c2ccc3c(c2)[C@@H]2[C@@H](CCN2S(=O)(=O)c2cn(C)cn2)[C@@H](CO)N3)c1` belongs > 10 µM (inactive); to `O=C(Nc1ccccc1)N1C[C@@H]2[C@H](c3ccccc31)[C@H](CO)N2Cc1ccccc1Cl`, > 10 µM (inactive).
Then `COc1ccc2c3c([nH]c2c1)[C@H](CO)N(C(=O)C1CCCCC1)CC31CCN(C)CC1`, with > 10 µM (inactive).
For `COc1ccccc1CNC(=O)C[C@H]1CC[C@@H]2[C@H](COC[C@@H](O)CN2C(=O)Nc2ccccc2)O1`, the active concentration is > 10 µM (inactive).
On to `COc1ccc(NC(=O)N2CC(=O)N3[C@H](C2)[C@@H](c2ccc(Br)cc2)[C@@H]3CO)cc1`, for which the active concentration was > 10 µM (inactive).
Then `CCCC#Cc1ccc([C@@H]2[C@H]3CN(C(=O)c4cccnc4)CC(=O)N3[C@H]2CO)cc1`, with > 10 µM (inactive).
To `N#C[C@@H]1[C@H](c2ccccc2-c2cccc(F)c2)[C@H](CO)N1S(=O)(=O)c1cccc(F)c1` belongs > 10 µM (inactive).
For `O=C(NCCc1ccncc1)[C@H]1[C@H](CO)[C@H]2Cn3c(ccc(-c4ccccc4)c3=O)[C@H]2N1C(=O)C1CC1`, the active concentration is > 10 µM (inactive).
Turning to `CN1C(=O)c2cc(NS(C)(=O)=O)ccc2OC[C@H]2O[C@@H](CC(=O)NC3CCCCC3)CC[C@H]21`, the active concentration was > 10 µM (inactive).
Turning to `CC(C)C#Cc1ccc([C@H]2[C@@H](CO)N3C(=O)CN(C(=O)Cc4ccccc4)C[C@@H]23)cc1`, the active concentration is > 10 µM (inactive).
To `CCS(=O)(=O)Nc1ccc2c(c1)C(=O)N(C)[C@@H]1CC[C@H](CC(=O)N[C@H]3CCN(Cc4ccccc4)C3)O[C@H]1CO2` belongs > 10 µM (inactive).

Source of the values: PubChem BioAssay AID977613 (Broad Institute, 2014).
